Test system: beta-lactamase
Experiment: In-vitro cleavage of the OSTA-1 prodrug by beta-lactamase (release of trans-cinnamaldehyde monitored by UV absorption at 285 nm)
Type: biochemical
Procedure: Cleavage of the OSTA-1 prodrug was tested in vitro by contact with a beta-lactamase in saline aqueous media.
The cleavage test is performed in physiological saline buffer (Phosphate Buffer Saline, PBS) at pH 7.0. The OSTA-1 molecule is added at a concentration of 100 microM, along with commercial beta-lactamase at a concentration of 1 unit per mL. Incubation is carried out at 37° C. The appearance of free trans-cinnamaldehyde in the medium is then monitored by UV absorption at 285 nm.
The release of the active ingredient, in this case trans-cinnamaldehyde, was monitored by UV absorption at 285 nm. The progress of the release of the prodrug molecule's active ingredient (100 microM) was observed, in the presence and absence of beta-lactamase.

## COC(/C=C/c1ccccc1)N(C)C(=O)OCC1=C(C(=O)O)N2C(=O)[C@@H](NC(=O)Cc3cccs3)[C@H]2SC1 (stereo partly drawn) [OSTA-1]
In vitro, saline aqueous media
  cleavability by beta-lactamase (conclusion): cleavable by beta-lactamase and releases the active ingredient
Prodrug 100 microM, PBS pH 7.0, 37° C., no beta-lactamase, UV absorption at 285 nm
  spontaneous release of the active ingredient in the absence of beta-lactamase: no spontaneous release
Prodrug 100 microM, commercial beta-lactamase 1 unit per mL, PBS pH 7.0, 37° C., UV absorption at 285 nm, after two hours
  release of the active ingredient (trans-cinnamaldehyde) in the presence of beta-lactamase: released in significant quantities

— patent US20260158148A1, “PRODRUG INTENDED FOR THE TREATMENT OF BACTERIAL […] TO A[…] THE BETA-LACTAM FAMILY” (Osta Therapeutics, priority 2022, published 2026)
